Source: patent publication US5744452A, “γ-L-glutamyl containing immunomodulator compounds and methods therewith” (Wei; Edward T., priority 1995, dated 1998)

Legend:
murine spleen cells = test: IL-2 production by Concanavalin A activated murine spleen cells (CTLL-2 cell assay); format: cell-based, CBA mice; conditions: for IL-2 production by murine spleen cells: Table 2; for interleukin-2 production by murine spleen cells: Table 6
Method: Spleen cells from CBA mice were cultured in tissue culture plates at a 10^6 cells/ml in RPMI-1640 medium supplemented with 10% fetal calf serum, 2 mM L-glutamine, and 80 μg/ml of Gentamycin. 1 μg/ml of Concanavalin A was used to activate basal IL-2 production from murine spleen lymphocytes. Bestim was added to cell cultures at the "0" time. After 36 hours supernatants were collected, centrifuged at 800 xg and IL-2 levels were measured in a CTLL-2 cell assay (Gillis et al., "T-cell Growth Factor: Parameters of Production and Quantitative Assay for Activity," J. Immunol., 120: 2027-2032, 1978). […] However, due to the variations in the method for IL-2 measurements clear dose-response comparisons could not be achieved.
IL-2 production studies have been performed using murine spleen lymphocytes activated with Concanavalin A. Spleen cells from CBA mice were cultured in a tissue culture plates at a 1×10^6 /ml concentration in RPMI-1640 medium supplemented with 10% fetal calf serum, 2 mM L-glutamine,80 μg/ml Gentamycin and 1 μg/ml Concanavalin A as an inducer of basal level IL-2 synthesis. Bestim at various concentration was added to cell cultures at the "0" time. After 36 hours supernatants were collected, centrifuged at 800 xg and used for IL-2 levels determination in a CTLL-2 cell assay (Gillis et al., 1978). IL-2-dependent CTLL-2 cells were grown in RPMI-1640 medium in the presence of 1-2 U/ml recombinant IL-2 as a growth factor. Before assay, cells were washed twice to remove IL-2 from the medium. After this wash tested supernatants were added and cells were incubated for 36 hours. IL-2-induced proliferation was assayed using a ^3 H-thymidine incorporation method.

[1] = test system: patients with disseminated cancer; test: Study in patients with disseminated cancer after anticancer therapy; format: in vivo, human; conditions: for Adhesion (%) / B-cells / B-cells (%) / Blastransformation, LPS / Blastransformation, PHA / Blastransformation, spontaneous / CD3 / CD3 (%) / CD4 / CD4 (%) / CD4/CD8 / CD8 / CD8 (%) / Cationic proteins / Chemiluminescence, luminol (induced) / Chemiluminescence, luminol (spontaneous) / IgA / IgG / IgM / Myeloperoxidase activity / NBT reduction test / NK activity (%) / NK-cells / NK-cells (%) / Stimulation index, LPS / Stimulation index, PHA: cancer patients
Method: Preliminary studies were conducted to characterize the immunomodulatory properties of Bestim in human subjects. The protocol for the human subjects studies were reviewed and approved by a Hospital Committee (Moscow Hospital N-24) and informed consent was obtained from all subjects. All 62 patients received by intramuscular injection 0.1 mg of Bestim dissolved in 1.5 to 2.0 ml of sterile saline, one injection per day for 5 days. Patients participating in the clinical trials were from 2 groups:
The first group consisted of 34 patients with disseminated cancer (29 with colon cancer, 2 with primary brain gliomas, 2 with stage III gastric cancer, 1 with stage IIIb breast cancer). These patients received Bestim therapy after standard anticancer therapy which included surgical treatment and chemotherapy with 5-fluorouracil. It should be noted here that the goal of Bestim therapy in these patients was not to treat the tumor but to correct the immunodeficiency that accompanied this disease and which occurs as a consequence of anticancer therapy. Placebo (saline injections) were administered to 14 subjects.
Laboratory measurements (data in Table 8 to 10) were performed one day before and compared to values obtained three days after injection of Bestim.

[2] = test system: patient with colon cancer; test: Case History 1: immunodeficiency after cancer chemotherapy (Patient A); format: in vivo, human
Method: Patient A was admitted with the diagnosis of colon cancer. Laboratory confirmed immunodeficiency which appeared as a complication of the main illness. Bestim preparation was applied by 5 daily intramuscular injections of 0.1 mg.

`N[C@@H](CCC(=O)N[C@@H](Cc1c[nH]c2ccccc12)C(=O)O)C(=O)O` [Bestim, γ-L-glutamyl-L-tryptophan] was tested, and the “IL-2 production by murine spleen cells” value (murine spleen cells; peptide 0.001 μg/ml, 36 hours) was 159 ± 13, the “IL-2 production by murine spleen cells” value (murine spleen cells; peptide 0.01 μg/ml) was 134 ± 8 and the “IL-2 production by murine spleen cells” value (murine spleen cells; peptide 0.1 μg/ml) was 98 ± 5. The “IL-2 production by murine spleen cells” value (murine spleen cells; peptide 1.0 μg/ml) was 157 ± 10, the “IL-2 production by murine spleen cells” value (murine spleen cells; peptide 10 μg/ml) was 95 ± 4 and the “IL-2 production by murine spleen cells” value (murine spleen cells; peptide 100 μg/ml) was 112 ± 3. For the same molecule, the “interleukin-2 production by murine spleen cells” value (from here on “interleukin-2 production”) (murine spleen cells; peptide 0.001 μg/ml) was 149 ± 2, the “interleukin-2 production” value (murine spleen cells; peptide 0.01 μg/ml) was 162 ± 4 and the “interleukin-2 production” value (murine spleen cells; peptide 0.1 μg/ml) was 172 ± 9. For the same molecule, the “interleukin-2 production” value (murine spleen cells; peptide 1.0 μg/ml) was 271 ± 11, the “interleukin-2 production” value (murine spleen cells; peptide 10 μg/ml) was 160 ± 8 and the “interleukin-2 production” value (murine spleen cells; peptide 100 μg/ml) was 186 ± 6. The “effect on IL-2 secretion from cells” value (murine spleen cells; conclusion from Table 2) was “enhances IL-2 secretion from cells at low doses”, the “patients who subjectively felt better and were improved in the physician's opinion” value ([1]; 30 out of 34 cancer patients, 0.1 mg i.m. per day for 5 days) was 88% and the “patients with negative changes in immunological parameters” value ([1]; cancer patients N = 34) was 9%. For the same molecule, the “patients with no significant change in immunological parameters” value ([1]; cancer patients N = 34) was 18%, the “patients with positive changes in immunological parameters” value ([1]; cancer patients N = 34) was 73% and the “Adhesion (%)” value ([1]; Bestim After) was 47.6 ± 5.7%. For the same molecule, the B-cells ([1]; Bestim After) was 240 ± 90 10^6 cells/L, the “B-cells (%)” value ([1]; Bestim After) was 7.1 ± 2.2% and the “Blastransformation, LPS” value ([1]; Bestim After) was 2738 ± 305. For the same molecule, the “Blastransformation, PHA” value ([1]; Bestim After) was 21661 ± 5674, the “Blastransformation, spontaneous” value ([1]; Bestim After) was 434 ± 73 and the CD3 ([1]; Bestim After) was 1940 ± 234 10^6 cells/L. For the same molecule, the “CD3 (%)” value ([1]; Bestim After) was 70 ± 4%, the CD4 ([1]; Bestim After) was 923 ± 114 10^6 cells/L and the “CD4 (%)” value ([1]; Bestim After) was 35 ± 2%. For the same molecule, the CD4/CD8 ([1]; Bestim After) was 1.16 ± 0.09, the CD8 ([1]; Bestim After) was 757 ± 75 10^6 cells/L and the “CD8 (%)” value ([1]; Bestim After) was 29 ± 2%. For the same molecule, the Cationic proteins ([1]; Bestim After) was 52.4 ± 3.3 Units, the “Chemiluminescence, luminol (induced)” value ([1]; Bestim After) was 5294 ± 789 and the “Chemiluminescence, luminol (spontaneous)” value ([1]; Bestim After) was 827 ± 299. It also gave an IgA ([1]; Bestim After) of 4.1 ± 0.7 g/L, an IgG ([1]; Bestim After) of 14.4 ± 1.0 g/L and an IgM ([1]; Bestim After) of 2.2 ± 0.4 g/L. The Myeloperoxidase activity ([1]; Bestim After) was 479 ± 97 Units, the NBT reduction test ([1]; Bestim After) was 160 ± 21 Units and the “NK activity (%)” value ([1]; Bestim After) was 28 ± 1.5%. The NK-cells ([1]; Bestim After) was 267 ± 32 10^6 cells/L, the “NK-cells (%)” value ([1]; Bestim After) was 12.0 ± 1.7% and the “Stimulation index, LPS” value ([1]; Bestim After) was 7.4 ± 0.7. The “Stimulation index, PHA” value ([1]; Bestim After) was 48.9 ± 10.3, the “Adhesion (%)” value ([1]; Bestim Before) was 49.6 ± 5.9% and the B-cells ([1]; Bestim Before) was 152 ± 58 10^6 cells/L. The “B-cells (%)” value ([1]; Bestim Before) was 5.0 ± 1.3%, the “Blastransformation, LPS” value ([1]; Bestim Before) was 2328 ± 438 and the “Blastransformation, PHA” value ([1]; Bestim Before) was 5998 ± 1745. The “Blastransformation, spontaneous” value ([1]; Bestim Before) was 373 ± 63, the CD3 ([1]; Bestim Before) was 1430 ± 183 10^6 cells/L and the “CD3 (%)” value ([1]; Bestim Before) was 65 ± 4%. The CD4 ([1]; Bestim Before) was 582 ± 54 10^6 cells/L, the “CD4 (%)” value ([1]; Bestim Before) was 28 ± 2% and the CD4/CD8 ([1]; Bestim Before) was 1.04 ± 0.08. For the same molecule, the CD8 ([1]; Bestim Before) was 572 ± 53 10^6 cells/L, the “CD8 (%)” value ([1]; Bestim Before) was 25 ± 2% and the Cationic proteins ([1]; Bestim Before) was 49.9 ± 5.9 Units. The “Chemiluminescence, luminol (induced)” value ([1]; Bestim Before) was 6991 ± 2101, the “Chemiluminescence, luminol (spontaneous)” value ([1]; Bestim Before) was 475 ± 141 and the IgA ([1]; Bestim Before) was 4.5 ± 0.8 g/L. For the same molecule, the IgG ([1]; Bestim Before) was 14.2 ± 1.0 g/L, the IgM ([1]; Bestim Before) was 1.9 ± 0.4 g/L and the Myeloperoxidase activity ([1]; Bestim Before) was 467 ± 87 Units. For the same molecule, the NBT reduction test ([1]; Bestim Before) was 157 ± 19 Units, the “NK activity (%)” value ([1]; Bestim Before) was 29 ± 1.3% and the NK-cells ([1]; Bestim Before) was 256 ± 44 10^6 cells/L. For the same molecule, the “NK-cells (%)” value ([1]; Bestim Before) was 13.4 ± 2.3%, the “Stimulation index, LPS” value ([1]; Bestim Before) was 7.6 ± 0.6 and the “Stimulation index, PHA” value ([1]; Bestim Before) was 15.9 ± 4.5. The Lymphocytes ([2]; After Bestim Therapy) was 1800 per mm^3, the “T-Lymphocytes (CD3)” value ([2]; After Bestim Therapy) was 60% and the “T-helper lymphocytes (CD4)” value ([2]; After Bestim Therapy) was 35%. The White blood cells ([2]; After Bestim Therapy (5 daily i.m. 0.1 mg)) was 6.9 × 10^3 per mm^3, the Lymphocytes ([2]; Before Therapy) was 200 per mm^3 and the “T-Lymphocytes (CD3)” value ([2]; Before Therapy) was 23%. For the same molecule, the “T-helper lymphocytes (CD4)” value ([2]; Before Therapy) was 14% and the White blood cells ([2]; Before Therapy) was 5.5 × 10^3 per mm^3.
